In patent publication US8227448B2, “Nutritional composition with health promoting action containing oligosaccharides” (priority 2000, dated 2012):

Test system: EHEC binding to Caco2 cells
Test: inhibition of pathogen (EHEC) binding to human colon cancer cells
Format: cell-based
Conditions: EHEC (2×10^8 cfu/ml) on Caco2 cells; test solution 5-10 mg/ml hydrolysed fibre; 1 h at 37° C.; cfu versus blank
Experimental: Different oligosaccharides obtained by hydrolysis of fibres were used to measure inhibition of pathogen binding to human colon cancer cells. Cells for the binding experiment are grown under standard conditions. The growth medium is removed from the cells and 0.2 ml of minimal essential medium, 0.4 ml EHEC solution (2×10^8 cfu/ml) and 0.4 ml of test solution (5-10 mg/ml hydrolysed fibre) is added. Appropriate blanks are used as controls. Cells are incubated for an hour at 37° C., after which the medium is removed. The cells are washed five times with PBS buffer, lysed, homogenised, diluted and plated to count colony-forming units, following standard procedures. Comparison of the amount of cfu's found with the blank and with one of the fractions, the inhibiting power of the fraction can be calculated as percentage reduction in binding. The table below summarises results of binding reduction. […] All other oligosaccharides (non arabinose-containing) have lower than 60% binding reduction activity.

Compound: OC[C@H]1O[C@@H](O[C@H]2[C@H](O)[C@@H](O)C(O)O[C@@H]2CO)[C@H](O)[C@@H](O)[C@H]1O (stereo partly shown) [lactose]
- % binding reduction: 28%
